Source: patent publication US10858369B2, “Pseudopolymorphic forms of a HIV protease inhibitor” (Janssen Sciences Ireland Unlimited Company, priority 2002, dated 2020)
Values after ≈ are worked out from the molar mass of the structure shown.

What was measured:
[1] = Fractions of Form B characterized with TG, DSC and IR; type: physicochemical; parameters: key to IR: ~Hydrate, Ref: ~hydrate, Ref: identical with reference
Text: Different fractions of Form B were characterized with thermogravimetry (TG), differential scanning calorimetry (DSC) and infrared spectroscopy (IR).

[2] = Approximate solubility in different solvents at approximate 23° C.; type: physicochemical; conditions: thermodynamic from solid
[3] = Aqueous solubility in solvents with different pH (excess solute equilibrated at 20° C., UV spectrometry); type: physicochemical
Procedure: Further solubility investigations were performed in function of pH. […] An excess of the solute was equilibrated with the solvent at 20° C. for at least 24 hours. After removing the undissolved compound, the concentration in solution was determined using UV spectrometry.
Aqueous solubilities of Form B were measured in solvents with different pH. An excess of the solute was equilibrated with the solvent at 20° C. for at least 24 hours. After removing the undissolved compound, the concentration in solution was determined using UV spectrometry.
Aqueous solubilities of Form K were measured in solvents with different pH. An excess of the solute was equilibrated with the solvent at 20° C. for at least 48 hours. After removing the undissolved compound, the concentration in solution was determined using UV spectrometry.

[4] = Solubility in function of HPβCD (hydroxpropyl-β-cyclodextrin); type: physicochemical; conditions: 2 days at 20° C.
Procedure: An excess of product was equilibrated with the solvent during 2 days at 20° C. After removing the undissolved compound, the concentration in solution was determined using UV spectrometry.

[5] = Thermogravimetry of Form A, before and after Adsorption/Desorption tests, and at 25° C. under dry nitrogen; type: physicochemical
Procedure: The TG curve was recorded on a TA Instrument Hi-Res TGA 2950 thermogravimeter at the following conditions:
initial temperature: room temperature
final condition: 300° C. or <80[(w/w) %]
The loss of weight at temperatures up to 80° C. is mainly due to the evaporation of solvent (water) present in the sample. The loss of weight at temperatures above 80° C. is mainly due to the evaporation of solvent (ethanolate) present in the sample.
The loss of weight at 25° C. after 10 hours was around 0.6%. This was due to the evaporation of solvent.

[6] = Adsorption-Desorption tests (vapor sorption, weight change with respect to atmospheric humidity, 25° C.); type: physicochemical
Procedure: drying temperature: 40° C.
equilibrium: ≤0.05% in 5 min. or 60 min.
data interval: 0.05% or 2 min.
At the drying step about 0.6% weight loss was registered.
About 21 mg of Form K were transferred into a VTI vapor sorption analyzer model SGA100 and the weight change with respect to the atmospheric humidity was recorded at the following conditions:
drying temperature: 30° C.
data interval: 0.05% or 2.0 min.
Form K is hygroscopic. […] Form K adsorbed up to 1.5% water at high relative humidity.
A different study of the adsorption and desorption of water by Form K at 25° C. at different conditions of relative humidity was investigated on an amount of about 18 mg of the mesylate solvate. The weight change as a function of relative humidity was registered.

[7] = Adsorption-Desorption Hydratation Tests; type: physicochemical; conditions: 25° C., RH cycle repeated 11 times
Procedure: equilibrium: ≤0.0005% in 5 min. or 90 min.
data interval: 0.05% or 2 min
cycle RH (%) adsorption/desorption: 5.95 repeat the cycle 11 times
At the end of this test a loss of weight of 5.2% was registered. […] The ADS/DES hydratation test curves are collected in FIG. 19.

[8] = Randomized, placebo-controlled, double-blind, multiple dose escalation trial: safety, tolerability and pharmacokinetics after oral administration
[9] = initial drying step (drying temperature 40° C. Form A, 30° C. Form K)
[10] = different study, about 18 mg, 25° C., FIG. 26

CC(C)CN(C[C@@H](O)[C@H](Cc1ccccc1)NC(=O)OC1CO[C@H]2OCC[C@@H]12)S(=O)(=O)c1ccc(N)cc1 (single isomer, unassigned) [Form B fraction 1]
IR ([1]; after ADS/DES): ±Hydrate, | TG % weight change <100° C. ([1]; after ADS/DES): 4.30% | DSC Max (° C.) ([1]; fraction as such): 69.1 °C | IR ([1]; fraction as such): Hydrate, Ref | TG % weight change <100° C. ([1]; fraction as such): 5.65%

CC(C)CN(C[C@@H](O)[C@H](Cc1ccccc1)NC(=O)O[C@H]1CO[C@H]2OCC[C@H]21)S(=O)(=O)c1ccc(N)cc1 [Form A, (3R,3aS,6aR)-hexahydrofuro [2,3-b] furan-3-yl (1S,2R)-3-[[(4-aminophenyl)sulfonyl] (isobutyl)amino]-1-benzyl-2-hydroxypropylcarbamate]
solubility ([2]; organic solvent or mixture, 1-Methoxy-2-propanol): 160000 to 213000 µg/mL (≈ 292 to 389 mM) | solubility ([2]; organic solvent or mixture, 2-Propanol): < 3400 µg/mL | solubility ([2]; organic solvent or mixture, Acetone): 106000 to 211000 µg/mL (≈ 194 to 385 mM) | solubility ([2]; organic solvent or mixture, Dichloromethane): 105000 to 209000 µg/mL (≈ 192 to 382 mM) | solubility ([2]; organic solvent or mixture, Ethanol absolute): < 3400 µg/mL | solubility ([2]; organic solvent or mixture, Ethylacetate): 71000 to 107000 µg/mL (≈ 130 to 195 mM) | solubility ([2]; organic solvent or mixture, Ethylmethylketone): 102000 to 204000 µg/mL (≈ 186 to 372 mM) | solubility ([2]; organic solvent or mixture, Heptane): < 3400 µg/mL | solubility ([2]; organic solvent or mixture, Isopropylether): < 3400 µg/mL | solubility ([2]; organic solvent or mixture, Methacyanate): > 200000 µg/mL | solubility ([2]; organic solvent or mixture, Methanol): < 3400 µg/mL | solubility ([2]; organic solvent or mixture, Tetrahydrofurane): 102000 to 203000 µg/mL (≈ 186 to 371 mM) | solubility ([2]; organic solvent or mixture, Toluene): < 3500 µg/mL | solubility ([2]; water): < 3500 µg/mL | solubility ([3]; Water (pH 5.9), at least 24 hours): 16 (pH 5.9) mg/100 ml solution | solubility thermodynamic ([3]; pH 0.2, aqueous buffer, 1.0N HCl (pH 0.2), at least 24 hours): 6200 µg/mL (≈ 11.3 mM) | solubility thermodynamic ([3]; pH 1.1, aqueous buffer, 0.1N HCl (pH 1.1), at least 24 hours): 830 µg/mL (≈ 1.52 mM) | solubility thermodynamic ([3]; pH 2, aqueous buffer, Buffer pH 2 (citrate/HCl) (pH 2.0), at least 24 hours): 180 µg/mL (≈ 0.329 mM) | solubility thermodynamic ([3]; pH 2.1, aqueous buffer, 0.01N HCl (pH 2.1), at least 24 hours): 180 µg/mL (≈ 0.329 mM) | solubility thermodynamic ([3]; pH 3, aqueous buffer, Buffer pH 3 (citrate/HCl) (pH 3.0), at least 24 hours): 100 µg/mL (≈ 0.183 mM) | solubility thermodynamic ([3]; pH 4, aqueous buffer, Buffer pH 4 (citrate/HCl) (pH 4.0), at least 24 hours): 90 µg/mL (≈ 0.164 mM) | solubility ([4]; 5% HPβCD in water (pH = 5.8)): 2.4 (pH = 5.8) mg/ml solution | solubility ([4]; 10% HPβCD in water (pH = 6.0)): 6.5 (pH = 6.0) mg/ml solution | solubility ([4]; 20% HPβCD in water (pH = 6.0)): 17 (pH = 6.0) mg/ml solution | solubility ([4]; 40% HPβCD in water (pH = 5.9)): 40 (pH = 5.9) mg/ml solution | solubility ([4]; Water (pH = 5.9)): 0.16 (pH = 5.9) mg/ml solution | loss of weight (TG) ([5]; 25° C. under dry nitrogen atmosphere, after 10 hours): around 0.6% | TG (% weight change) >80° C. ([5]; Form A as such): 7.1% | TG (% weight change) Up to 80° C. ([5]; Form A as such): 0.3% | TG (% weight change) >80° C. ([5]; after A/D hydratation test): 0.5% | TG (% weight change) Up to 80° C. ([5]; after A/D hydratation test): 5.4% | TG (% weight change) >80° C. ([5]; after ADS/DES): 4.0% | TG (% weight change) Up to 80° C. ([5]; after ADS/DES): 2.9% | hygroscopicity ([6]; 25° C.): not hygroscopic | loss of weight during the desorption cycle ([6]; 25° C.): 1.4% | obtained product after ADS/DES ([6]; 25° C.): mixture of ethanolate form and hydrated form | weight loss at the drying step [6, 9]: about 0.6% | form after the hydratation test [7]: transferred into a hydrated form | loss of weight at the end of the test [7]: 5.2% | unchanged Form A excreted in the urine ([8]; all dose levels): Less than 2% | time to reach steady-state plasma concentrations ([8]; oral, repeated dosing b.i.d. or t.i.d., healthy subjects): ≤ 3 days | dose-proportionality of Cmax (maximum conc.) ([8]; with respect to dose per intake): dose-proportional

CC(C)CN(C[C@@H](O)[C@H](Cc1ccccc1)NC(=O)O[C@H]1CO[C@H]2OCC[C@H]21)S(=O)(=O)c1ccc(N)cc1 [Form B, (3R,3aS,6aR)-hexahydrofuro [2,3-b] furan-3-yl (1S,2R)-3-[[(4-aminophenyl)sulfonyl] (isobutyl)amino]-1-benzyl-2-hydroxypropylcarbamate]
solubility ([3]; 0.1N HCl (pH 1.1), at least 24 hours): 150 (pH 1.1) mg/100 ml solution | solubility ([3]; Buffer pH 2 (citrate/HCl) (pH 2.0), at least 24 hours): 23 (pH 2.0) mg/100 ml solution | solubility ([3]; Buffer pH 3 (citrate/HCl) (pH 3.0), at least 24 hours): 13 (pH 3.0) mg/100 ml solution | solubility ([3]; Buffer pH 4 (citrate/HCl) (pH 4.0), at least 24 hours): 12 (pH 4.0) mg/100 ml solution | solubility thermodynamic ([3]; pH 0.14, aqueous buffer, 1.0N HCl (pH 0.14), at least 24 hours): 5100 µg/mL (≈ 9.31 mM) | solubility thermodynamic ([3]; pH 5.1, water, Water (pH 5.1), at least 24 hours): 100 µg/mL (≈ 0.183 mM) | hygroscopicity ([6]; 25° C.): hygroscopic | obtained product after ADS/DES ([6]; 25° C.): mixture of hydrate and amorphous product | water remained on the sample after the desorption cycle ([6]; 25° C.): about 1.2% | weight loss at the drying step [6, 9]: about 5.6%

CC(C)CN(C[C@@H](O)[C@H](Cc1ccccc1)NC(=O)OC1CO[C@H]2OCC[C@@H]12)S(=O)(=O)c1ccc(N)cc1 (single isomer, unassigned) [Form B fraction 3]
DSC Extra (° C.) ([1]; after 5 d 40° C./75% RH): 62.8 °C | DSC Max (° C.) ([1]; after 5 d 40° C./75% RH): 77.4 °C | IR ([1]; after 5 d 40° C./75% RH): ±Hydrate, | TG % weight change <100° C. ([1]; after 5 d 40° C./75% RH): 2.33% | DSC Extra (° C.) ([1]; fraction as such): 67.8 °C | DSC Max (° C.) ([1]; fraction as such): 77.0 °C | IR ([1]; fraction as such): ±Hydrate, | TG % weight change <100° C. ([1]; fraction as such): 3.13%

CC(C)CN(C[C@@H](O)[C@H](Cc1ccccc1)NC(=O)O[C@H]1CO[C@H]2OCC[C@H]21)S(=O)(=O)c1ccc(N)cc1 [Form K, (3R,3aS,6aR)-hexahydrofuro [2,3-b] furan-3-yl (1S,2R)-3-[[(4-aminophenyl)sulfonyl] (isobutyl)amino]-1-benzyl-2-hydroxypropylcarbamate]
solubility ([3]; 20% HPβCD in water (pH 1.6), at least 48 hours): 2100 (pH 1.6) mg/100 ml solution | solubility thermodynamic ([3]; pH 2, aqueous buffer, 0.01N HCl (pH 2.0), at least 48 hours): 240 µg/mL (≈ 0.438 mM) | solubility thermodynamic ([3]; pH 2, aqueous buffer, Buffer pH 2 (citrate/HCl) (pH 2.0), at least 48 hours): 210 µg/mL (≈ 0.383 mM) | solubility thermodynamic ([3]; pH 3, aqueous buffer, Buffer pH 3 (citrate/HCl) (pH 3.0), at least 48 hours): 120 µg/mL (≈ 0.219 mM) | solubility thermodynamic ([3]; pH 3.3, water, Water (pH 3.3), at least 48 hours): 190 µg/mL (≈ 0.347 mM) | solubility thermodynamic ([3]; pH 4, aqueous buffer, Buffer pH 4 (citrate/HCl) (pH 4.0), at least 48 hours): 110 µg/mL (≈ 0.201 mM) | hygroscopicity ([6]; 25° C.): hygroscopic | drying of the product during the desorption cycle ([6]; 25° C., about 21 mg, FIG. 25): dried completely | weight loss at the drying step ([6]; different study, about 18 mg of the mesylate solvate, FIG. 26): about 0.6% | drying of the product during the desorption cycle [6, 10]: dried completely | hygroscopicity [6, 10]: slightly hygroscopic | weight loss at the drying step [6, 9]: 0.3%

CC(C)CN(C[C@@H](O)[C@H](Cc1ccccc1)NC(=O)OC1CO[C@H]2OCC[C@@H]12)S(=O)(=O)c1ccc(N)cc1 (single isomer, unassigned) [Form B fraction 2]
DSC Max (° C.) ([1]; after 5 d 40° C./75% RH): 74.1 °C | IR ([1]; after 5 d 40° C./75% RH): ~Hydrate, Ref | TG % weight change <100° C. ([1]; after 5 d 40° C./75% RH): 3.56% | DSC Max (° C.) ([1]; fraction as such): 75.6 °C | IR ([1]; fraction as such): ~Hydrate, Ref | TG % weight change <100° C. ([1]; fraction as such): 5.91%
